{"source": "patent US11077035B2", "about": "“Hair treatment compositions and methods” (SYTHEON LIMITED, priority 2017, dated 2021)", "key": {"Singlet oxygen quenching": {"assay": "Singlet oxygen quenching", "assay_type": "biochemical", "excerpt": "The first study evaluated the quenching ability of the aryl alkanones versus αTocopherol. The test methodology employed is the method of W. Mullen et al., J of Agriculture & Food Chemistry, 59(9):3754-3762, 2011)."}, "[1]": {"assay": "Chelation study 2C: Fe^2+ chelation", "details": "for % Remaining of FL (20 min) / % Remaining of FL (40 min) / % Remaining of FL (80 min): Fe^2+ ions 200 μM"}, "[2]": {"details": "for change in fluorescence decay pattern with and without ten-fold excess of CaCl2 (selectivity Cu^2+ over Ca^2+): comparison of studies 2A and 2B; for Cu^2+ chelation capability, in words: with CaCl2 (study 2A)", "procedure": "Food Chem: 50(10); 2772-2777, 2002\nThe first chelation study (2A) evaluated the Cu^2+ chelation capability of the test and comparative chelators in the presence of excess Ca^2+. Here, a Fenton reaction was initiated with a mixture of Cu^2+, CaCl2 and hydrogen peroxide at alkaline condition, the mixture comprising [CuCl2]=200 μM, [H2O2]=0.055 μM, [CaCl2]2.3 mM, and [FL]=6.20×10^−8 M. The test compounds were evaluated at a concentration of 600 μM for each of Compounds 1D, 1E and 1F and Deferiprone (a 3 molar excess) and 200 μM for each of EDDS and EDTA."}, "[3]": {"assay": "Stability under singlet oxygen environment (HPLC)", "assay_type": "physicochemical", "procedure": "A second study was performed to determine the stability of the aryl alkanones and α tocopherol under a singlet oxygen environment. In this study, 5 ml of 1 mg/ml solution of each test compound (in DMSO) was mixed with 5 ml of a solution (pH 5) containing 0.16 mg/ml lithium molybdate, 4 ml 0.01 M NaOH, and 5 ml of 0.015% H2O2. 500 μl from each mixture was taken every 2 mins and added to 1 ml of 1 mg/ml curcumin solution (in DMSO) to stop the reaction. The mixture was then injected into an HPLC to monitor product degradation."}, "[4]": {"assay": "Chelation study 2D: Fe^3+ chelation", "details": "for % Remaining of FL (20 min) / % Remaining of FL (40 min) / % Remaining of FL (80 min): Fe^3+ ions; for Fe^3+ chelation capability, in words: study 2D"}}}
{"smiles": "COc1ccc(CC(C(C)=O)C(C)=O)cc1OC", "note": "[Compound 1D, 3-(3,4-dimethoxybenzyl)-2,4-pentanedione]", "values": [{"measurement": "Antioxidant Power against singlet oxygen", "setting": "Singlet oxygen quenching", "result": "4,590 μmole Trolox equivalent/g"}, {"measurement": "% Remaining of FL (20 min)", "setting": "[1]", "result": 98.3, "unit": "%"}, {"measurement": "% Remaining of FL (40 min)", "setting": "[1]", "result": 98.3, "unit": "%"}, {"measurement": "% Remaining of FL (80 min)", "setting": "[1]", "result": 98.3, "unit": "%"}, {"measurement": "change in fluorescence decay pattern with and without ten-fold excess of CaCl2 (selectivity Cu^2+ over Ca^2+)", "setting": "[2]", "result": "very little change"}, {"measurement": "Cu^2+ chelation capability, in words", "setting": "[2]", "result": "almost completely chelated"}]}
{"smiles": "COc1ccc(CC(C(C)=O)C(C)=O)cc1", "note": "[Compound 1E, 3-(4-methoxybenzyl)-2,4-pentanedione]", "values": [{"measurement": "Antioxidant Power against singlet oxygen", "setting": "Singlet oxygen quenching", "result": "4,374 μmole Trolox equivalent/g"}, {"measurement": "% Remaining of FL (20 min)", "setting": "[1]", "result": 99.6, "unit": "%"}, {"measurement": "% Remaining of FL (40 min)", "setting": "[1]", "result": 99.2, "unit": "%"}, {"measurement": "% Remaining of FL (80 min)", "setting": "[1]", "result": 99.2, "unit": "%"}, {"measurement": "change in fluorescence decay pattern with and without ten-fold excess of CaCl2 (selectivity Cu^2+ over Ca^2+)", "setting": "[2]", "result": "very little change"}, {"measurement": "Cu^2+ chelation capability, in words", "setting": "[2]", "result": "almost completely chelated"}]}
{"smiles": "COc1cc(CC(C(C)=O)C(C)=O)cc(OC)c1OC", "note": "[Compound 1F, 3-(3,4,5-trimethoxybenzyl)-2,4-pentanedione]", "values": [{"measurement": "Stability % Product remaining", "setting": "[3]; 2 min, 0.5 mg/ml, pH 5", "result": 92, "unit": "%"}, {"measurement": "Stability % Product remaining", "setting": "[3]; 4 min, 0.5 mg/ml, pH 5", "result": 87, "unit": "%"}, {"measurement": "Stability % Product remaining", "setting": "[3]; 0.1 h, 0.5 mg/ml, pH 5", "result": 85, "unit": "%"}, {"measurement": "Stability % Product remaining", "setting": "[3]; 8 min, 0.5 mg/ml, pH 5", "result": 81, "unit": "%"}, {"measurement": "Stability % Product remaining", "setting": "[3]; 10 min, 0.5 mg/ml, pH 5", "result": 80, "unit": "%"}, {"measurement": "Antioxidant Power against singlet oxygen", "setting": "Singlet oxygen quenching", "result": "6,359 μmole Trolox equivalent/g"}, {"measurement": "% Remaining of FL (20 min)", "setting": "[1]", "result": 98.6, "unit": "%"}, {"measurement": "% Remaining of FL (40 min)", "setting": "[1]", "result": 98.1, "unit": "%"}, {"measurement": "% Remaining of FL (80 min)", "setting": "[1]", "result": 97.7, "unit": "%"}, {"measurement": "change in fluorescence decay pattern with and without ten-fold excess of CaCl2 (selectivity Cu^2+ over Ca^2+)", "setting": "[2]", "result": "very little change"}, {"measurement": "Cu^2+ chelation capability, in words", "setting": "[2]", "result": "almost completely chelated"}]}
{"smiles": "COc1cc(CC(C(C)=O)C(C)=O)ccc1O", "note": "[Compound 1M, 3-(3-methoxy-4-hydroxybenzyl)-2,4-pentanedione]", "values": [{"measurement": "% Remaining of FL (20 min)", "setting": "[4]", "result": 100, "unit": "%"}, {"measurement": "% Remaining of FL (40 min)", "setting": "[4]", "result": 100, "unit": "%"}, {"measurement": "% Remaining of FL (80 min)", "setting": "[4]", "result": 100, "unit": "%"}, {"measurement": "Stability % Product remaining", "setting": "[3]; 2 min, 0.5 mg/ml, pH 5", "result": 95, "unit": "%"}, {"measurement": "Stability % Product remaining", "setting": "[3]; 4 min, 0.5 mg/ml, pH 5", "result": 91, "unit": "%"}, {"measurement": "Stability % Product remaining", "setting": "[3]; 0.1 h, 0.5 mg/ml, pH 5", "result": 88, "unit": "%"}, {"measurement": "Stability % Product remaining", "setting": "[3]; 8 min, 0.5 mg/ml, pH 5", "result": 85, "unit": "%"}, {"measurement": "Stability % Product remaining", "setting": "[3]; 10 min, 0.5 mg/ml, pH 5", "result": 82, "unit": "%"}, {"measurement": "Antioxidant Power against singlet oxygen", "setting": "Singlet oxygen quenching", "result": "7,180 μmole Trolox equivalent/g"}]}
{"smiles": "CCOC(=O)C(C)C(Cc1ccc(O)c(OC)c1)C(C)=O", "note": "(stereo not shown) [Compound 2M, 3-(3-methoxy-4-hydroxybenzyl)-4-ethylester-2-pentanone]", "values": [{"measurement": "% Remaining of FL (20 min)", "setting": "[4]", "result": 99.8, "unit": "%"}, {"measurement": "% Remaining of FL (40 min)", "setting": "[4]", "result": 99.3, "unit": "%"}, {"measurement": "% Remaining of FL (80 min)", "setting": "[4]", "result": 98.5, "unit": "%"}]}
{"smiles": "Cc1c(O)c(=O)ccn1C", "note": "[Deferiprone, reference compound]", "values": [{"measurement": "Fe^3+ chelation capability, in words", "setting": "[4]", "result": "performed poorly"}, {"measurement": "Fe^2+ chelation capability, in words", "setting": "[1]; study 2C", "result": "good chelation capability"}, {"measurement": "Cu^2+ chelation capability, in words", "setting": "[2]", "result": "moderate chelation capability"}]}
{"smiles": "CC(=O)N(O)CCCCCNC(=O)CCC(=O)N(O)CCCCCNC(=O)CCC(=O)N(O)CCCCCN", "note": "[Desferal, reference compound]", "values": [{"measurement": "Fe^3+ chelation capability, in words", "setting": "[4]", "result": "moderate chelating capabilities"}]}
{"smiles": "O=C(O)CC(NCCNC(CC(=O)O)C(=O)O)C(=O)O", "note": "(stereo not shown) [EDDS, ethylenediamine-N,N′-disuccinic acid, reference compound]", "values": [{"measurement": "chelation of copper, in words", "setting": "[2]; general statement on applicant's studies in the background", "result": "not an effective chelating agent"}, {"measurement": "Cu^2+ chelation capability, in words", "setting": "[2]", "result": "poor chelating capabilities"}]}
{"smiles": "O=C(O)CN(CCN(CC(=O)O)CC(=O)O)CC(=O)O", "note": "[EDTA, ethylenediamine tetraacetic acid, reference compound]", "values": [{"measurement": "Fe^3+ chelation capability, in words", "setting": "[4]", "result": "moderate chelating capabilities"}, {"measurement": "Cu^2+ chelation capability, in words", "setting": "[2]", "result": "poor chelating capabilities"}]}
{"smiles": "Cc1c(C)c2c(c(C)c1O)CC[C@@](C)(CCC[C@H](C)CCC[C@H](C)CCCC(C)C)O2", "note": "[α Tocopherol, reference compound]", "values": [{"measurement": "Stability % Product remaining", "setting": "[3]; singlet oxygen environment (lithium molybdate/H2O2), 2 min", "result": 73, "unit": "%"}, {"measurement": "Stability % Product remaining", "setting": "[3]; singlet oxygen environment (lithium molybdate/H2O2), 4 min", "result": 58, "unit": "%"}, {"measurement": "Stability % Product remaining", "setting": "[3]; singlet oxygen environment (lithium molybdate/H2O2), 6 min", "result": 47, "unit": "%"}, {"measurement": "Stability % Product remaining", "setting": "[3]; singlet oxygen environment (lithium molybdate/H2O2), 8 min", "result": 39, "unit": "%"}, {"measurement": "Stability % Product remaining", "setting": "[3]; singlet oxygen environment (lithium molybdate/H2O2), 10 min", "result": 35, "unit": "%"}, {"measurement": "Antioxidant Power against singlet oxygen", "setting": "Singlet oxygen quenching", "result": "2,636 μmole Trolox equivalent/g"}]}
